According to patent publication US7947854B2, “Bis-cationic compounds and use thereof” (The University of Sydney, priority 2003, dated 2011):
≈ marks a conversion by molar mass, not a printed value. Read-outs that look alike come from different tables or passages of the source.

Columns and labels:
Assay type in all cases: cell-based
[1] = system: ten randomly selected isolates of T. tonsurans; assay: Susceptibility of ten T. tonsurans isolates, broth microdilution NCCLS M38-P; conditions: for MIC: Trichophyton tonsurans
Experimental: (§1) Isolates were tested using the method described in the National Committee for Clinical Laboratory Standards (NCCLS) document M38-P for filamentous fungi, with dermatophyte specific modifications described by Fernández-Torres et al, Current topics in Medical Mycology, 14-19 Feb. 1999.
(§2) Five dermatophyte isolates were, namely; T. rubrum, T. mentagrophytes, T. tonsurans, M. canis and M. gypseum, all of which produce lipases and some, phospholipase. These isolates were tested by the broth microdilution method according to NCCLS document M38-P, for activity against selected antifungal agents. In addition, ten randomly selected isolates of T. tonsurans were also tested. All isolates were maintained on SDA at 28° C. Candida parapsilosis (ATCC 20019) was used as the reference control is organism.
(§3) The microdilution plates used were a single lot of RPMI 1640 basal medium (JRH bioScience Inc. Lenexa, Kans., USA) with L-glutamine and without sodium bicarbonate, buffered to pH 7.0, at 25° C., with 0.165 M (MOPS) morpholinepropanesulfonic acid (Sigma).
(§4) Powdered drugs were dissolved in 100% dimethyl sulfoxide (DMSO), at concentrations 100 times higher than the final test concentration. All compounds were prepared in 100% (DMSO). For ITRA and TRB, two-fold drug dilutions were prepared in 100% DMSO at 100 times the final concentration, followed by further dilution 1:50 in RPMI medium, to yield 2× the final strength required for the test.
(§5) Fungal cultures were subcultured onto Potato Dextrose Agar and grown at 28° C. for 7-10 days. Fungal suspensions were covered with 5 ml of distilled water, and then colonies were scraped off with cotton tipped swabs. The resulting mixture of conidia and hyphae elements was withdrawn, transferred to a sterile tube and then vortexed with glass beads. After the particles settled, the upper homogeneous suspension was collected and its density adjusted by a densitometer to a 0.5 McFarland standard at the wavelength of 530 nm (80-85% transmittance). These stock suspensions were then diluted 1:50 with RPMI medium to obtain final working inoculum concentration ranging from 0.3×10^4 to 9×10^4 CFU/ml. Inoculum quantification was performed by plating 100 μl of the 1:1000 dilution of the adjusted inoculum on SDA plates, incubated at 28° C., and after 7 days of incubation, the colonies were counted.
(§6) Testing was based on NCCLS M38-P document for testing filamentous moulds. Testing was carried out in sterile 96-well flat bottomed microtitre plate. Columns 1 and 3 to 12 were filled with 100 μl of RPMI medium, leaving column 2 unfilled. Columns 1, 2 and 3 were filled with 100 μl of 2× drug concentration. Serial dilutions were then made by transferring 100 μl from column 3 to each column up to column 11, and 100 μl from column 11 was discarded. Column 12 served as drug free growth control. Finally, 100 μl of inoculum suspension was added to all wells except column 1, which acted as sterility control (Columns 1 and 12 served as sterility and growth control respectively). Plates were incubated at 28° C. for 7 days, and read at 3 days and 7 days of incubation. All testing was performed in duplicate, on three separate occasions.
(§7) Growth in microtitre trays were read by visual inspection by using an illuminated-reversed mirror. Growth in each well was compared with the “growth control” drug free well. The MIC end point for all the drugs was chosen to be the first well with 100% growth inhibition (i.e. the lowest drug concentration inhibiting growth).

[2] = system: M. gypseum; assay: Susceptibility of dermatophytes, broth microdilution NCCLS M38-P; conditions: for MIC: Nannizzia gypsea
Experimental: as §1, §2, §3, §4, §5, §6, §7

[3] = system: M. canis; assay: as above; conditions: for MIC: Microsporum canis
Experimental: as §1, §2, §3, §4, §5, §6, §7

[4] = system: T. rubrum; assay: as above; conditions: for MIC: Trichophyton rubrum
Experimental: as §1, §2, §3, §4, §5, §6, §7

[5] = system: T. tonsurans; assay: as above; conditions: for MIC: Trichophyton tonsurans
Experimental: as §1, §2, §3, §4, §5, §6, §7

[6] = system: T. mentagrophytes; assay: as above; conditions: 100% growth inhibition, 28° C.; for MIC: Trichophyton mentagrophytes
Experimental: as §1, §2, §3, §4, §5, §6, §7

[7] = T. tonsurans 1, read-out: MIC GM
[8] = T. tonsurans 2, read-out: MIC GM
[9] = T. tonsurans 2, read-out: MIC Mean
[10] = T. tonsurans 4, read-out: MIC Mean
[11] = T. tonsurans 5, read-out: MIC GM
[12] = T. tonsurans 5, read-out: MIC Mean
[13] = T. tonsurans 6, read-out: MIC GM
[14] = T. tonsurans 6, read-out: MIC Mean
[15] = T. tonsurans 7, read-out: MIC GM
[16] = T. tonsurans 7, read-out: MIC Mean
[17] = T. tonsurans 8, read-out: MIC GM
[18] = T. tonsurans 8, read-out: MIC Mean
[19] = T. tonsurans 9, read-out: MIC GM
[20] = T. tonsurans 9, read-out: MIC Mean
[21] = T. tonsurans 10, read-out: MIC Mean
[22] = T.tonsurans 3, read-out: MIC GM
[23] = T.tonsurans 3, read-out: MIC Mean
[24] = read-out: MIC Mean, T. tonsurans 1
[25] = 100% growth inhibition, 28° C., read-out: MIC GM, M. gypseum
[26] = 100% growth inhibition, 28° C., read-out: MIC Mean, M. gypseum
[27] = 100% growth inhibition, 28° C., read-out: MIC GM, M. canis
[28] = 100% growth inhibition, 28° C., read-out: MIC Mean, M. canis
[29] = 100% growth inhibition, 28° C., read-out: MIC GM, T. rubrum
[30] = 100% growth inhibition, 28° C., read-out: MIC Mean, T. rubrum
[31] = 100% growth inhibition, 28° C., read-out: MIC GM, T. tonsurans
[32] = 100% growth inhibition, 28° C., read-out: MIC Mean, T. tonsurans
[33] = read-out: MIC GM, T. mentagrophyte
[34] = read-out: MIC Mean, T. mentagrophyte

## CCC(C)n1ncn(-c2ccc(N3CCN(c4ccc(OCC5COC(Cn6cncn6)(c6ccc(Cl)cc6Cl)O5)cc4)CC3)cc2)c1=O (centres unmarked) [Itraconazole]
[1]; T. tonsurans 1
  MIC Range: 0.03 to 0.125 µg/mL
[1]; T. tonsurans 2
  MIC Range: 0.125 to 2.0 µg/mL
[1]; T. tonsurans 4
  MIC Range: 0.5 µg/mL (≈ 0.709 µM)
[1]; T. tonsurans 5
  MIC Range: 0.25 to 0.5 µg/mL
[1]; T. tonsurans 6
  MIC Range: 0.25 to 2.0 µg/mL
[1]; T. tonsurans 7
  MIC Range: 0.5 to 1.0 µg/mL
[1]; T. tonsurans 8
  MIC Range: 0.25 to 2.0 µg/mL
[1]; T. tonsurans 9
  MIC Range: 0.125 to 1.0 µg/mL
[1]; T. tonsurans 10
  MIC Range: 0.25 to 1.0 µg/mL
[1]; T.tonsurans 3
  MIC Range: 0.06 to 0.5 µg/mL
[1]; [7]
  MIC: 0.12 µg/mL (≈ 0.17 µM)
[1]; [8]
  MIC: 0.397 µg/mL (≈ 0.563 µM)
[1]; [9]
  MIC: 0.604 µg/mL (≈ 0.856 µM)
[1]; T. tonsurans 4, read-out: MIC GM
  MIC: 0.5 µg/mL (≈ 0.709 µM)
[1]; [10]
  MIC: 0.5 µg/mL (≈ 0.709 µM)
[1]; [11]
  MIC: 0.44 µg/mL (≈ 0.624 µM)
[1]; [12]
  MIC: 0.46 µg/mL (≈ 0.652 µM)
[1]; [13]
  MIC: 0.71 µg/mL (≈ 1.01 µM)
[1]; [14]
  MIC: 0.96 µg/mL (≈ 1.36 µM)
[1]; [15]
  MIC: 0.56 µg/mL (≈ 0.794 µM)
[1]; [16]
  MIC: 0.58 µg/mL (≈ 0.822 µM)
[1]; [17]
  MIC: 0.79 µg/mL (≈ 1.12 µM)
[1]; [18]
  MIC: 1.08 µg/mL (≈ 1.53 µM)
[1]; [19]
  MIC: 0.445 µg/mL (≈ 0.631 µM)
[1]; [20]
  MIC: 0.52 µg/mL (≈ 0.737 µM)
[1]; T. tonsurans 10, read-out: MIC GM
  MIC: 0.445 µg/mL (≈ 0.631 µM)
[1]; [21]
  MIC: 0.5 µg/mL (≈ 0.709 µM)
[1]; [22]
  MIC: 0.196 µg/mL (≈ 0.278 µM)
[1]; [23]
  MIC: 0.27 µg/mL (≈ 0.383 µM)
[1]; [24]
  MIC: 0.21 µg/mL (≈ 0.298 µM)
[2]; 100% growth inhibition, 28° C.
  MIC Range, M. gypseum: 0.25 to 2.0 µg/mL
[2]; [25]
  MIC: 0.74 µg/mL (≈ 1.05 µM)
[2]; [26]
  MIC: 0.93 µg/mL (≈ 1.32 µM)
[2]; Table 9, read-out: MIC M. gypseum
  MIC: 0.9 µg/mL (≈ 1.28 µM)
[3]; 100% growth inhibition, 28° C.
  MIC Range, M. canis: 0.125 to 2.0 µg/mL
[3]; [27]
  MIC: 0.42 µg/mL (≈ 0.595 µM)
[3]; [28]
  MIC: 0.63 µg/mL (≈ 0.893 µM)
[3]; Table 9, read-out: MIC M. canis
  MIC: 0.6 µg/mL (≈ 0.85 µM)
[4]; 100% growth inhibition, 28° C.
  MIC Range, T. rubrum: 0.03 to 1.0 µg/mL
[4]; [29]
  MIC: 0.171 µg/mL (≈ 0.242 µM)
[4]; [30]
  MIC: 0.276 µg/mL (≈ 0.391 µM)
[4]; Table 9, read-out: MIC T. rubrum
  MIC: 0.3 µg/mL (≈ 0.425 µM)
[5]; 100% growth inhibition, 28° C.
  MIC Range, T. tonsurans: 0.25 to 2.0 µg/mL
[5]; [31]
  MIC: 0.84 µg/mL (≈ 1.19 µM)
[5]; [32]
  MIC: 1.06 µg/mL (≈ 1.5 µM)
[5]; Table 9, read-out: MIC T. tonsurans
  MIC: 1.1 µg/mL (≈ 1.56 µM)
[6]
  MIC Range, T. mentagrophyte: 0.06 to 1.0 µg/mL
[6]; [33]
  MIC: 0.26 µg/mL (≈ 0.368 µM)
[6]; [34]
  MIC: 0.355 µg/mL (≈ 0.503 µM)

## CN(C/C=C/C#CC(C)(C)C)Cc1cccc2ccccc12 [Terbinafine]
[1]; T. tonsurans 1
  MIC Range: 0.015 to 0.06 µg/mL
[1]; T. tonsurans 2
  MIC Range: 0.015 to 0.06 µg/mL
[1]; T. tonsurans 4
  MIC Range: 0.015 to 0.06 µg/mL
[1]; T. tonsurans 5
  MIC Range: 0.03 to 0.06 µg/mL
[1]; T. tonsurans 6
  MIC Range: 0.03 to 0.125 µg/mL
[1]; T. tonsurans 7
  MIC Range: 0.015 to 0.06 µg/mL
[1]; T. tonsurans 8
  MIC Range: 0.06 to 0.125 µg/mL
[1]; T. tonsurans 9
  MIC Range: 0.06 to 0.125 µg/mL
[1]; T. tonsurans 10
  MIC Range: 0.015 to 0.06 µg/mL
[1]; T.tonsurans 3
  MIC Range: 0.015 to 0.125 µg/mL
[1]; [7]
  MIC: 0.034 µg/mL (≈ 0.117 µM)
[1]; [8]
  MIC: 0.036 µg/mL (≈ 0.124 µM)
[1]; [9]
  MIC: 0.041 µg/mL (≈ 0.141 µM)
[1]; [10]
  MIC: 0.0275 µg/mL (≈ 0.0944 µM)
[1]; [11]
  MIC: 0.048 µg/mL (≈ 0.165 µM)
[1]; [12]
  MIC: 0.05 µg/mL (≈ 0.172 µM)
[1]; [13]
  MIC: 0.061 µg/mL (≈ 0.209 µM)
[1]; [14]
  MIC: 0.071 µg/mL (≈ 0.244 µM)
[1]; [15]
  MIC: 0.038 µg/mL (≈ 0.13 µM)
[1]; [16]
  MIC: 0.045 µg/mL (≈ 0.154 µM)
[1]; [17]
  MIC: 0.068 µg/mL (≈ 0.233 µM)
[1]; [18]
  MIC: 0.07 µg/mL (≈ 0.24 µM)
[1]; [19]
  MIC: 0.077 µg/mL (≈ 0.264 µM)
[1]; [20]
  MIC: 0.081 µg/mL (≈ 0.278 µM)
[1]; [21]
  MIC: 0.035 µg/mL (≈ 0.12 µM)
[1]; [22]
  MIC: 0.038 µg/mL (≈ 0.13 µM)
[1]; [23]
  MIC: 0.051 µg/mL (≈ 0.175 µM)
[1]; [24]
  MIC: 0.037 µg/mL (≈ 0.127 µM)
[2]; 100% growth inhibition, 28° C.
  MIC Range, M. gypseum: 0.015 to 0.25 µg/mL
[2]; [25]
  MIC: 0.077 µg/mL (≈ 0.264 µM)
[2]; [26]
  MIC: 0.122 µg/mL (≈ 0.419 µM)
[3]; 100% growth inhibition, 28° C.
  MIC Range, M. canis: 0.03 µg/mL (≈ 0.103 µM)
[3]; [27]
  MIC: 0.03 µg/mL (≈ 0.103 µM)
[3]; [28]
  MIC: 0.03 µg/mL (≈ 0.103 µM)
[4]; 100% growth inhibition, 28° C.
  MIC Range, T. rubrum: 0.007 to 0.06 µg/mL
[4]; [29]
  MIC: 0.026 µg/mL (≈ 0.0892 µM)
[4]; [30]
  MIC: 0.032 µg/mL (≈ 0.11 µM)
[5]; 100% growth inhibition, 28° C.
  MIC Range, T. tonsurans: 0.015 to 0.06 µg/mL
[5]; [31]
  MIC: 0.024 µg/mL (≈ 0.0824 µM)
[5]; [32]
  MIC: 0.03 µg/mL (≈ 0.103 µM)
[6]
  MIC Range, T. mentagrophyte: 0.03 to 0.06 µg/mL
[6]; [33]
  MIC: 0.034 µg/mL (≈ 0.117 µM)
[6]; [34]
  MIC: 0.035 µg/mL (≈ 0.12 µM)
